System: cathepsin D
Assay: Intracellular cathepsin D activity
Assay type: cell-based, human
Details: CLN3^Δex7/8 neurons
Protocol: The activity of intracellular protease cathepsin D was measured using Abcam's Cathepsin D Activity Assay kit. Each sample was prepared in more than 3 replicates. […]

C/C=C1\C(=O)C[C@H]2[C@@H]3CCC4=CC(=O)CC[C@]4(C)[C@H]3CC[C@]12C [Compound G, (Z)-guggulsterone]
activity of cathepsins D (fluorescence intensity): significantly increased

From patent publication US20250152605A1, “METHOD AND DRUG FOR TREATING NEURONAL CEROID LIPOFUSCINOSIS” (priority 2021, published 2025)
